Assay results from US10968177B2, “Tricyclic sulfones as RORγ modulators” (BRISTOL-MYERS SQUIBB COMPANY, priority 2016, dated 2021).

Target: T1, RORγ (Homo sapiens, UniProt P51449)
T1 construct: Jurkat pEx/Gal/hRORγ CLBD/HYG pG5luc/blast; expressed in transfected cells
T1 sequence (P51449 269-508 limits assumed): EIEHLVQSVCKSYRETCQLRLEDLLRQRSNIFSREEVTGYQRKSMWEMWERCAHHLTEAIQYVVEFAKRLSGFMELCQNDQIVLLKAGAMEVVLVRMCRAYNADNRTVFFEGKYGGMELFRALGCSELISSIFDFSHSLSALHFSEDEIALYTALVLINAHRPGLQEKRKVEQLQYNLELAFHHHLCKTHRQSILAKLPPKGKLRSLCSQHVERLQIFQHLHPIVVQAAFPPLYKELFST
Experiment: RORγ Gal4 reporter assay (Gal4-luciferase reporter in Jurkat cells)
Assay type: cell-based
Details: inhibition of luminescence (inverse agonist activity); Jurkat cells stably over-expressing hRORγ; incubated overnight
Procedure: General RORγ Gal4 Reporter Assay
Inverse agonist activity of potential ligands to RORγ was measured by inhibition of luminescence in a Gal4-luciferase reporter assay in Jurkat cells.
Jurkat cells stably over-expressing the RORγ receptor, Jurkat pEx/Gal/hRORγ CLBD/HYG pG5luc/blast, were plated at a concentration of 10,000 cells/well in a 384-well solid white cell culture plate (Perkin Elmer #6007899) in assay buffer RPMI 1640 (Gibco 11875-085 1L) containing 0.1% BSA, 100×HEPES (Gibco 15360-080), 100 mM sodium pyruvate (Gibco 11360-040), […] Hygromycin B (Invitrogen 10687-010) and 10 mg/mL blasticidin (Invitrogen R210-01). 100 nL of test compound in a 3-fold serial dilution, with final concentrations ranging from 40 μM to 0.67 nM, were added to the cells which were then incubated overnight.
The following day, cells were lysed with 10 μL of Steady-Glo Luciferase Assay System (Promega Cat. No. EZ550), and analyzed immediately. IC50 values were determined. The IC50 value is defined as the concentration of test compound needed to reduce luciferase activity by 50% and is calculated using the four parameter logistic equation to fit the normalized data.

| SMILES | IC50 [nM] |
| --- | --- |
| N=S1(=O)CCC(C(=O)N2CCC3(S(=O)(=O)c4cccc(F)c4)c4ccc(C(F)(C(F)(F)F)C(F)(F)F)cc4CCC23)CC1 (single isomer, unassigned) [Example 1, (9b-((3-fluorophenyl)sulfonyl)-7-(perfluoropropan-2-yl)-1,2,3a,4,5,9b-hexahydro-3H-benzo[e]indol-3-yl)(1-imino-1-oxidohexahydro-1λ^6-thiopyran-4-yl)methanone] | 40 |
| N=S1(=O)CCC(C(=O)N2CCC3(S(=O)(=O)c4ccccc4)c4ccc(C(F)(C(F)(F)F)C(F)(F)F)cc4CCC23)CC1 (single isomer, unassigned) [Example 3] | 56 |
| N=S1(=O)CCC(C(=O)N2CCC3(S(=O)(=O)c4ccc(F)cc4)c4ccc(C(F)(C(F)(F)F)C(F)(F)F)cc4NCC23)CC1 (single isomer, unassigned) [Example 6, (9b-((4-fluorophenyl)sulfonyl)-7-(perfluoropropan-2-yl)-1,2,3a,4,5,9b-hexahydro-3H-pyrrolo[2,3-c]quinolin-3-yl)(1-imino-1-oxidohexahydro-1λ^6-thiopyran-4-yl)methanone] | 51 |
| N=S1(=O)CCC(C(=O)N2CC[C@@]3(S(=O)(=O)c4ccc(F)cc4)c4ccc(C(F)(C(F)(F)F)C(F)(F)F)cc4CC[C@@H]23)CC1 (single isomer, unassigned) [Example 11] | 39 |
| N=S1(=O)CCC(C(=O)N2CC[C@@]3(S(=O)(=O)c4ccc(F)cc4)c4ccc(C(F)(C(F)(F)F)C(F)(F)F)cc4CC[C@@H]23)CC1 (single isomer, unassigned) [Example 12] | 56 |
| CN=S1(=O)CCC(C(=O)N2CC[C@@]3(S(=O)(=O)c4ccc(F)cc4)c4ccc(C(F)(C(F)(F)F)C(F)(F)F)cc4CC[C@@H]23)CC1 (single isomer, unassigned) [Example 13] | 26 |
| CC(=O)N=S1(=O)CCC(C(=O)N2CC[C@@]3(S(=O)(=O)c4ccc(F)cc4)c4ccc(C(F)(C(F)(F)F)C(F)(F)F)cc4CC[C@@H]23)CC1 (single isomer, unassigned) [Example 15] | 49 |
| N=S1(=O)CCC(F)(C(=O)N2CC[C@@]3(S(=O)(=O)c4ccc(F)cc4)c4ccc(C(F)(C(F)(F)F)C(F)(F)F)cc4CC[C@@H]23)CC1 (single isomer, unassigned) [Example 19] | 60 |
| CC1(C(=O)N2CC[C@@]3(S(=O)(=O)c4ccc(F)cc4)c4ccc(C(F)(C(F)(F)F)C(F)(F)F)cc4CC[C@@H]23)CCS(=N)(=O)CC1 (stereo partly shown) [Example 8] | 34 |
| N#CC1(C(=O)N2CC[C@@]3(S(=O)(=O)c4ccc(F)cc4)c4ccc(C(F)(C(F)(F)F)C(F)(F)F)cc4CC[C@@H]23)CCS(=N)(=O)CC1 (stereo partly shown) [Example 10] | 48 |

Further compounds by falling IC50, results first:

| IC50 [nM] | SMILES |
| --- | --- |
| 246 | N=S1(=O)CCC(C(=O)N2CCC3(S(=O)(=O)c4ccc(F)cc4)c4ccc(C(F)(C(F)(F)F)C(F)(F)F)cc4OCC23)CC1 (single isomer, unassigned) [Example 4] |
| 77 | CC(=O)N=S1(=O)CCC(C(=O)N2CC[C@@]3(S(=O)(=O)c4ccc(F)cc4)c4ccc(C(F)(C(F)(F)F)C(F)(F)F)cc4CC[C@@H]23)CC1 (single isomer, unassigned) [Example 16] |
| 58 | N=S1(=O)CCC(C(=O)N2CCC3(S(=O)(=O)c4ccc(Cl)cc4)c4ccc(C(F)(C(F)(F)F)C(F)(F)F)cc4CCC23)CC1 (single isomer, unassigned) [Example 5] |
| 57 | N=S1(=O)CCC(C(=O)N2CCC3(S(=O)(=O)c4cccc(Cl)c4)c4ccc(C(F)(C(F)(F)F)C(F)(F)F)cc4CCC23)CC1 (single isomer, unassigned) [Example 2] |
| 52 | N=S1(=O)CCC(F)(C(=O)N2CC[C@@]3(S(=O)(=O)c4ccc(F)cc4)c4ccc(C(F)(C(F)(F)F)C(F)(F)F)cc4CC[C@@H]23)CC1 (single isomer, unassigned) [Example 18] |
| 40 | CN=S1(=O)CCC(C(=O)N2CC[C@@]3(S(=O)(=O)c4ccc(F)cc4)c4ccc(C(F)(C(F)(F)F)C(F)(F)F)cc4CC[C@@H]23)CC1 (single isomer, unassigned) [Example 14] |
| 28 | N=S1(=O)CCC(C(=O)N2CC[C@@]3(S(=O)(=O)c4ccc(F)cc4)c4ccc(C(F)(C(F)(F)F)C(F)(F)F)cc4CC[C@@H]23)CC1 (mixture of isomers) [Example 7, ((3aR,9bR)-9b-((4-fluorophenyl)sulfonyl)-7-(perfluoropropan-2-yl)-1,2,3a,4,5,9b-hexahydro-3H-benzo[e]indol-3-yl)(1-imino-1-oxidohexahydro-1λ^6-thiopyran-4-yl)methanone] |
| 21 | CN1CC2N(C(=O)C3CCS(=N)(=O)CC3)CCC2(S(=O)(=O)c2ccc(F)cc2)c2ccc(C(F)(C(F)(F)F)C(F)(F)F)cc21 (stereo not shown) [Example 17] |
| 14 | N=S1(=O)CCC(O)(C(=O)N2CC[C@@]3(S(=O)(=O)c4ccc(F)cc4)c4ccc(C(F)(C(F)(F)F)C(F)(F)F)cc4CC[C@@H]23)CC1 (mixture of isomers) [Example 9, ((3aR)-9b-((4-fluorophenyl)sulfonyl)-7-(perfluoropropan-2-yl)-4,5-dihydro-1H-benzo[e]indol-3(2H,3aH,9bH)-yl)(4-hydroxy-1-imino-1-oxidotetrahydro-2H-thiopyran-4-yl)methanone] |
